Where two headings read alike, the source gives them in different places.

These results are taken from US20190055267A1, “ORGANOTRIFLUOROBORATE MIMICS OF AMINO ACIDS AND USES THEREOF” (The United States of America, as represented by the …, priority 2015, published 2019).

One data set relates to U87MG human glioma cells. The data set is classed as cell-based.
Data set [1] relates to amino acid transporters. Nature of the data set: Uptake-concentration kinetics, Michaelis-Menten fitting, in U87MG cells. The format is cell-based, human. As to conditions: 60 min at 37° C. in PBS, read-out: KM/μM, ^18F-AA-BF3 (BAA). As for the experimental part:
The uptake of BAA in U87MG cells was measured at increasing concentrations in phosphate-buffered saline (PBS) and plotted against the concentration of BAA. […] The KM values of ^18F-BAAs were calculated by Michaelis-Menten fitting using Igor Pro 6.22.
The uptake-concentration correlations (FIGS. 12-15) fit well with Michaelis-Menten kinetics, giving the values of Table 4.

A further data set relates to U87MG cells. Kind of data set: In vitro competitive inhibition of boramino acid uptake by natural amino acids and transporter inhibitors. Also noted: inhibition: dose or concentration left out as unconfirmed. As to conditions: for inhibition at 25000 µM / inhibition: Homo sapiens, U-87 MG, 1 h; for inhibition: read-out: inhibition of uptake of 18F-Leu-BF3.
Data set [2] concerns amino acid transporters. The following applies: natural amino acid, comparison value; read-out: KM/μM, AA; cited from earlier work.
Data set [3] is described as follows: Solvolysis of the BF3 moiety in phosphate buffer. The data set is classed as physicochemical. The following applies: for t1/2/min: half-life in phosphate buffer at pH 7.4; for pKB-F: pK of the first fluorine of the BF3− moiety; for k (solv)/min^−1: rate of solvolysis, phosphate buffer pH 7.4. The text has this:
See also, Liu et al., Chem. Eur. J., 2015, 21:3924-8, incorporated herein by reference in its entirety.

The conditions of data set [4]: COOH group of the corresponding amino acid; cited from earlier work.
A further data set relates to UM22B cells. Nature of the data set: Competitive inhibition assay of 18F-Leu-BF3 uptake. The data set is classed as cell-based. The following applies: 60 min incubation. The method, then: To study the specificity of BAA transportation, a competitive inhibition assay was performed using UM22B cells in the presence of natural amino acid and transporter inhibitor.
Another data set deals with UM22B xenograft. Kind of data set: PET imaging and biodistribution in UM22B tumor-bearing mice. The data set is classed as in vivo. The method, then: All imaging studies were performed as follows. PET scans were obtained and image analysis were performed using an Inveon small-animal PET scanner (Malvern, Pa., USA). About 3.7 MBq of ^18F-AA were administered via tail vein injection under isoflurane anesthesia. […] For dynamic acquisition, 60 min dynamic PET scans were acquired, followed by a late-time-point scans at 2 h after tracer injection. With the acute inflammation model, 10-min static PET images were acquired at 1 h and 2 h after injection. The images were reconstructed using a 3-dimensional ordered subset expectation maximum algorithm, and no correction was applied for attenuation or scatter. For each scan, regions of interest (ROIs) were drawn using vendor software (ASI Pro 5.2.4.0; Siemens Medical Solutions) on decay-corrected whole-body coronal images. The radioactivity concentrations (accumulation) within the tumor, heart, muscle, liver, brain, and kidneys were obtained from mean pixel values within the multiple ROI volumes and then converted to megabecquerel per milliliter. These values were then divided by the administered activity to obtain (assuming a tissue density of 1 g/mL) an image-ROI-derived percentage injected dose per gram (% ID/g).

In the next data set the test system is system P transporters. As to conditions: read-out: KM value, cited from earlier work.
[5] abbreviates: read-out: inhibition of uptake of 18F-Ala-BF3.
[6] abbreviates: read-out: inhibition of uptake of 18F-Phe-BF3.
The mark [7] stands for this setting: read-out: inhibition of uptake of 18F-Pro-BF3.
Setting [8] is: UM22B-bearing mice, 120 min after injection.
Setting [9] is: U87MG cells, competitor at 25 mM, 60 min incubation.

In the case of “^18F-fluorodeoxyglucose [^18F-FDG, reference compound]”, the cell uptake result in the data set on U87MG human glioma cells is on record as “less than 5 % AD”.
As for `C[C@H]([NH3+])[B-](F)(F)F` [^18F-Ala-BF3], the Km in the data set on amino acid transporters [1] came to 468 ± 87.2 µM.
Still for that read-out and setting: to `F[B-](F)(F)[C@@H]1CCC[NH2+]1` [^18F-Pro-BF3] belongs 65.6 ± 45.2 µM.
For orientation: inhibition means the relative decrease from the control value, in per cent. Regarding `N[C@@H](Cc1ccccc1)C(=O)O` [L-phenylalanine], the figures for the inhibition at 25000 µM in the data set on U87MG cells (setting [5]), with U87MG cells (setting [6]) and with U87MG cells (setting [7]) were 71%, about 80% and 0.1%, respectively. Also, in the data set on amino acid transporters [2], the Km was 18.7 ± 4.1 µM.
Turning to `[NH3+]C(Cc1ccccc1)[B-](F)(F)F` (centres unmarked) [Phe-BF3], in data set [3], the t1/2/min was 92.45 h, the pKB-F stood at 3.904 and the “k (solv)/min^−1” value came to 0.0001247 min⁻¹. Further, in data set [4], the “pka of corres. COOH” value is 2.2.
Take `CC(C)C[C@H](N)C(=O)O` [L-leucine]: in the data set on U87MG cells, the inhibition was about 98%. In addition, the Km with amino acid transporters [2] was 19.7 ± 2.4 µM. The “inhibition of cell uptake of 18F-Leu-BF3” value in the data set on UM22B cells is 94.7%.
In the case of `F[B-](F)(F)[C@@H]1CCC[NH2+]1` [Pro-BF3], in [3], the t1/2/min amounted to 210.58 h, the pKB-F stood at 4.2615 and the “k (solv)/min^−1” value was determined as 5.476e-05 min⁻¹. For the same compound, the “pka of corres. COOH” value in data set [4] is reported as 1.95.
`[NH3+][C@@H](Cc1ccccc1)[B-](F)(F)[18F]` [^18F-Phe-BF3]: in the data set on UM22B xenograft (PET, tumor-bearing mice), the bone uptake result is reported as “undetectable”. In addition, in the data set with UM22B xenograft (setting [8]), the “Average Uptake (% ID/g), blood pool” value worked out at 2.46 ± 0.50 % ID/g; the “Average Uptake (% ID/g), hottest voxel cluster of tumor” value came to 13.29 ± 1.18 % ID/g; the “Average Uptake (% ID/g), kidney” value is on record as 2.13 ± 0.34 % ID/g; the “Average Uptake (% ID/g), liver” value is recorded as 2.67 ± 0.44 % ID/g. Moreover, in the data set on UM22B xenograft (setting [8]), the “Average Uptake (% ID/g), muscle” value is recorded as 2.31 ± 0.44 % ID/g and the “Average Uptake (% ID/g), whole tumor region of interest” value was 7.31 ± 0.78 % ID/g. Further, the “tumor uptake, peak voxel cluster value” in the data set on UM22B xenograft (time-activity curves, UM22B tumor-bearing mice (FIGS. 21 and 22)) is reported as “approximately 15 % ID/g”.
In the case of `CSCC[C@H]([NH3+])[B-](F)(F)F` [Met-BF3], in data set [3], the t1/2/min came to 116.4 h, the pKB-F turned out to be 4.0041 and the “k (solv)/min^−1” value worked out at 9.906e-05 min⁻¹. The “pka of corres. COOH” value in data set [4] is given as 2.13.
For `C[C@H]([NH3+])[B-](F)(F)F` [Ala-BF3], in data set [3], the t1/2/min was determined as 56.42 h, the pKB-F came to 3.6895 and the “k (solv)/min^−1” value was 0.0002044 min⁻¹. The “pka of corres. COOH” value in data set [4] is on record as 2.35.
Turning to `F[B-](F)([18F])[C@@H]1CCC[NH2+]1` [^18F-Pro-BF3], the “inhibition of uptake by sodium free medium” value in the data set on U87MG cells (U87MG cells, 18F-Pro-BF3, 60 min incubation) was found to be 76.2%.
On to `CC(C)C[C@H]([NH3+])[B-](F)(F)F` [^18F-Leu-BF3], for which the Km in the data set on amino acid transporters [1] stood at 25.9 ± 2.4 µM.
On to `O=C(O)[C@@H]1CCCN1` [proline], for which the inhibition at 25000 µM with U87MG cells (setting [7]) was about 80%. In addition, the results for the Km with system P transporters (system P transporter with high KM), in the data set with system P transporters (system P transporter with low KM) and with amino acid transporters [2] were about 5000 µM, about 100 µM and 67 ± 11.5 µM, respectively.
In the case of `C[C@H]([NH3+])[B-](F)(F)[18F]` [^18F-Ala-BF3], the “inhibition of uptake by sodium free medium” value in the data set with U87MG cells (U87MG cells, 18F-Ala-BF3, 60 min incubation) came to 91.1%.
On to `C[C@H](N)C(=O)O` [L-Alanine], for which the inhibition at 25000 µM in the data set with U87MG cells (setting [5]) was about 90%; in the data set with U87MG cells (setting [6]), 60.3%. In addition, the inhibition in the data set on U87MG cells is 38.9%. The Km with amino acid transporters [2] was 370 µM.
`N=C(N)NCCC[C@H](N)C(=O)O` [L-Arginine]: the inhibition at 25000 µM in the data set with U87MG cells (setting [5]) is 58.2%; in the data set with U87MG cells (setting [6]) it was 42.6%; with U87MG cells (setting [7]) it was 15.6%. Moreover, the inhibition in the data set with U87MG cells came out at 23%.
With `CC(C)C[C@H]([NH3+])[B-](F)(F)F` [Leu-BF3], in data set [3], the t1/2/min was determined as 60.25 h, the pKB-F was determined as 3.7181 and the “k (solv)/min^−1” value turned out to be 0.0001914 min⁻¹. The “pka of corres. COOH” value in [4] is 2.33.
As to `[NH3+][C@@H](Cc1ccccc1)[B-](F)(F)F` [^18F-Phe-BF3], the Km with amino acid transporters [1] came to 17.6 ± 4.2 µM.
In the case of `NC1(C(=O)O)CC2CCC1C2` (centres unmarked) [BCH, 2-amino-2-norbornanecarboxylic acid], in the data set on U87MG cells, the inhibition was found to be 77.4%. For the same compound, the inhibition at 25000 µM with U87MG cells (setting [6]) is 72.1%. In addition, the “inhibition of uptake of 18F-Leu-BF3” value in the data set with U87MG cells (U87MG cells, BCH with sodium-free medium, 60 min incubation) is 83.0%. In the data set with UM22B cells, the “inhibition of cell uptake of 18F-Leu-BF3” value came to 83.0%.
In the case of `N[C@@H](CCC(=O)O)C(=O)O` [L-Glutamate], in the data set with U87MG cells (setting [9]), the “inhibition of uptake of 18F-Ala-BF3” value is 50.3%, the “inhibition of uptake of 18F-Phe-BF3” value was determined as 13.0% and the “inhibition of uptake of 18F-Pro-BF3” value amounted to 0.2%.
As to `CNC(C)(C)C(=O)O` [MeAIB, 2-methylaminoisobutyric acid], the figures for the inhibition at 25000 µM in the data set with U87MG cells (setting [5]), with U87MG cells (setting [6]) and in the data set on U87MG cells (setting [7]) were 39.3%, 17.6% and 39.3%, respectively. Besides, in the data set on U87MG cells, the inhibition was found to be 24.5%.
